Consider 6 compounds from paper PMC4408918 (Journal of medicinal chemistry, 2012).

The structures appear in SMILES notation. Read-outs that look alike come from different tables or passages of the source. Bounds are passed on as bounds.

Data set [1] concerns P. falciparum 3D7. As to the kind of experiment: P. falciparum 3D7 growth inhibition. The data set is classed as cell-based. Particulars: Plasmodium falciparum, 3D7, 72 h, read-out: 3D7 EC50.
Data set [2] relates to P. falciparum K1. As to the kind of experiment: P. falciparum K1 growth inhibition. Format: cell-based. As to conditions: Plasmodium falciparum, K1, 72 h, read-out: K1 EC50.
The nature of data set [3]: Liver microsomal stability, human. Format: in vitro ADME. Particulars: both, pH 7.4.
A short description of data set [4]: In vivo pharmacokinetics, oral, female CD-1 mice. Particulars: for AUC(0-inf) / CL/F: female, CD-1, mouse, po.
The subject of data set [5] is P. berghei (NK-65). The data set is described as follows: Oral efficacy in P. berghei. As to conditions: 100 and 200 mg/kg oral on days 3, 4, 5.
The subject of data set [6] is Kir6.2/SUR2A. Particulars: read-out: Kir6.2 IC50; cited from earlier work.
Data set [7] in a line: Parallel Artificial membrane Permeability Assay. Particulars: triplicate. Format: in vitro ADME.
Data set [8] is described as follows: Liver microsomal stability, mouse. Format: in vitro ADME. Particulars: female, CD9, mouse, mouse liver microsomes, pH 7.4. Background: Liver microsomes are vesicles of endoplasmic reticulum, rich in cytochrome P450 enzymes.
The target of data set [9] is CYP2D6 (Homo sapiens, UniProt P10635). As to the kind of experiment: CYP inhibition in human liver microsomes, CYP2D6. As to conditions: 20 minutes at 37 °C, two concentrations. The data set is classed as in vitro ADME.
For data set [10], the system named is Nav1.5. As to conditions: cited from earlier work.
The mark [11] stands for this setting: human liver microsomes (pooled).

Chain of CYP2D6 (P10635 whole entry): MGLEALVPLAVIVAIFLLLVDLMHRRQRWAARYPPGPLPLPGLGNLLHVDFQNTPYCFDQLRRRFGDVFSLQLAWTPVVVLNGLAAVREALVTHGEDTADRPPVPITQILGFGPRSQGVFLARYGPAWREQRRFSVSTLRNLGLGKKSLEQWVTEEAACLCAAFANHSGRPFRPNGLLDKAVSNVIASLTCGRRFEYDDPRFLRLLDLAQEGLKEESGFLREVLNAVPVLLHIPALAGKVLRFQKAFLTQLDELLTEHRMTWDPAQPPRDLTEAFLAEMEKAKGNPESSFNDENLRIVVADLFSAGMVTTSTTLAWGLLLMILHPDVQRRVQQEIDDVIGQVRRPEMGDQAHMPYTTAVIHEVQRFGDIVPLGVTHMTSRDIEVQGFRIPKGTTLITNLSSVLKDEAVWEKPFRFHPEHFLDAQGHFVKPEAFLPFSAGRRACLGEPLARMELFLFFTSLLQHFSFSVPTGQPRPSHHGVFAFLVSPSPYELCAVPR

As for `O=C(CCc1ccccc1)c1ccccc1OCC(O)CN1CCN(C(c2ccccc2)c2ccccc2)CC1` (stereo not shown) [Compound 1], the EC50 (usually the concentration needed to bring the measured effect to its halfway point) stood at 0.06 ± 0.01 µM in [1] and 0.1 ± 0.05 µM in data set [2]. Also, the CLint scaled (commonly the rate of metabolic loss divided by the concentration) at 2000 µM in [3] (setting [11]) amounted to 14 ± 1 mL/min/kg. The AUC(0-inf) (in general, total exposure, with the tail of the curve extrapolated) in data set [4] (plasma, 20 mg/kg) was 0.249 µM·h; in data set [4] (plasma, 200 mg/kg), 3.1 µM·h; in [4] (plasma, 500 mg/kg), 3.37 µM·h. The CL/F (usually the apparent clearance, not corrected for the fraction that reaches the circulation) in data set [4] (plasma, 20 mg/kg) was 2350 mL/min/kg; in [4] (plasma, 200 mg/kg), 1890 mL/min/kg; in [4] (plasma, 500 mg/kg) it was 4340 mL/min/kg. Also, the “overall in vivo efficacy” value in data set [5] is reported as “not significantly better than that of the negative controls”.

In the case of `O=C(CCc1ccccc1)c1cc(F)ccc1OCC(O)CN1CCN(C(c2ccccc2)c2ccccc2)CC1` (stereo not shown) [Compound 2], in [3] (microsomes), the CLint scaled at 2000 µM worked out at 5 ± 2 mL/min/kg. Besides, in [6], the IC50 (usually the point on the concentration scale where inhibition reaches its midpoint) was more than 5 µM. In [4] (plasma, 200 mg/kg), this compound gave an AUC(0-inf) of 6.17 µM·h and a CL/F of 920 mL/min/kg.

As for `O=C(CCc1ccc(F)cc1)c1ccccc1OCC(O)CN1CCN(C(c2ccccc2)c2ccccc2)CC1` (stereo not shown) [Compound 3], in data set [7], the “Avg. Pe (PAMPA permeability)” value is “und^a”. Besides, the CLint scaled at 2000 µM in data set [8] came out at 43 ± 3 mL/min/kg; in data set [3] (setting [11]), 13 ± 1 mL/min/kg. Also, the AUC(0-inf) was 0.298 µM·h in [4] (plasma, 20 mg/kg); 5.67 µM·h in [4] (plasma, 200 mg/kg); 4.08 µM·h in data set [4] (plasma, 500 mg/kg). The CL/F in data set [4] (plasma, 20 mg/kg) was 1900 mL/min/kg; in [4] (plasma, 200 mg/kg), 1000 mL/min/kg; in [4] (plasma, 500 mg/kg) it was 3480 mL/min/kg.

Consider `O=C(CCc1ccccc1)c1ccccc1OCC(O)CN1CCC(c2ccccc2)CC1` (stereo not shown) [Compound 4], for which the CLint scaled at 2000 µM in data set [8] is 27 ± 2 mL/min/kg; in [3] (setting [11]), 11 ± 1 mL/min/kg. Further, in [9], the CYP2D6 inhibition entry is “weak CYP2D6 inhibitors”. Besides, the IC50 is more than 5 µM in data set [6]; more than 5 µM in data set [10] (read-out: Nav1.5 phasic IC50, phasic); more than 5 µM in data set [10] (read-out: Nav1.5 tonic IC50, tonic). For the same compound, the “improvement in AUCinf over compound 1” value in [4] (500 mg/kg oral, female CD-1 mice) is reported as “approximately 5 fold”. Also, the AUC(0-inf) in data set [4] (in vivo, 20 mg/kg) came out at 0.224 µM·h; in data set [4] (in vivo, 200 mg/kg), 6.8 µM·h; in [4] (in vivo, 500 mg/kg), 15.3 µM·h. Moreover, the CL/F in data set [4] (in vivo, 20 mg/kg) was 3110 mL/min/kg; in data set [4] (in vivo, 200 mg/kg), 1020 mL/min/kg; in [4] (in vivo, 500 mg/kg), 1140 mL/min/kg. Besides, the “overall in vivo efficacy” value in [5] is “some efficacy in suppressing parasitemia and life extension, but did not provide durable cures”.

With `O=C(CCc1ccccc1)c1cc(F)ccc1OCC(O)CN1CCC(c2ccccc2)CC1` (stereo not shown) [Compound 5], the “Avg. Pe (PAMPA permeability)” value in data set [7] is recorded as “und^a”. Further, the CLint scaled at 2000 µM in data set [8] was determined as 29 ± 2 mL/min/kg; in [3] (setting [11]) it was 19 ± 1 mL/min/kg. Also, the CYP2D6 inhibition result in data set [9] was “weak CYP2D6 inhibitors”. Also, the AUC(0-inf) in [4] (plasma, 20 mg/kg) was determined as 1.6 µM·h; in data set [4] (plasma, 200 mg/kg), 3.75 µM·h. In addition, the CL/F in [4] (plasma, 20 mg/kg) was 421 mL/min/kg; in [4] (plasma, 200 mg/kg), 1790 mL/min/kg. In addition, the “increase in Cmax with increasing dose from 20 mg/kg to 200 mg/kg” value in [4] (oral, female CD-1 mice) came out at 2 fold.

Consider `Cc1ccc(N2CCN(CC(O)COc3ccccc3C(=O)CCc3ccccc3)CC2)cc1` (stereo not shown) [Compound 6], for which, in data set [7], the “Avg. Pe (PAMPA permeability)” value was “und^a”. Moreover, the CLint scaled at 2000 µM in [8] is 30 ± 6 mL/min/kg. In addition, the IC50 in data set [6] was more than 5 µM. Further, the IC50 in [10] was more than 5 µM. In [4] (in vivo, 200 mg/kg), this compound had an AUC(0-inf) of 6.49 µM·h and a CL/F of 1000 mL/min/kg.
